Assay results reported in US11957680B2, “Pyruvate kinase activators for use in treating blood disorders” (Agios Pharmaceuticals, Inc., priority 2017, dated 2024).

Tests used:
wild type PKR [1] = target: T1, wild type PKR (Homo sapiens, UniProt P30613); assay: PKR (wild type) enzyme AC50 assay, LDH/NADH-coupled, absorbance at 340 nm; format: biochemical; conditions: Table 2; enzyme assay; read-out: PKR WT AC50
Procedure: (§1) Example 11. PKR Mutant Assay
(§2) PKR or PKR mutant enzyme solution was diluted into a reaction mix, which contains 1× buffer (100 mM KCl, 50 mM Tris pH 7.5, 5 mM MgCl2) as well as PEP (conc depends on enzyme), 180 μM NADH, 0.5 units LDH, 1 mM DTT, 0.03% BSA; final assay concentrations after 1.11 fold dilution are indicated.
(§3) 2 μL of test compound was added into wells first, and then 180 μL reaction mix was added.
(§4) Reactions mixture with test compound was assembled except for ADP, and plates were stored for 60 minutes at room temperature.
(§5) 20 uL ADP was added to start reaction at room temperature and reaction progress was measured as changes in absorbance at 340 nm wavelength at room temperature.
(§6) Test Compound Preparation:
(§7) Test compound stock was made at 100× concentration in 100% DMSO (10 mM)
(§8) 1 to 3 dilutions were made for 11 points (i.e. 50 μl of first concentration added to 100 μl 100% DMSO to yield 3.33 mM, 50 μl of this added to 100 μl DMSO to yield 1.11 mM, and so forth) • 1 to 100 dilution into assay (2 μl in 200 μl) yielded starting concentration of 100 μM, decreasing 3 fold for 11 points.
(§9) Assay Buffer: 100 mM KCl, 50 mM Tris 7.5, 5 mM MgCl2, 1 mM DTT, 0.03% BSA
(§10) Reaction Mixture: PKR mutant enzyme: 40-400 ng/well; ADP: 0.2-1.65 mM; PEP: 0.1-0.5 mM; NADH: 180 μM; LDH: 0.5 units (Sigma #59023); DTT: 1 mM; BSA: 0.03%.

PKR K410E = PKR K410E (Homo sapiens, UniProt P30613, K410E); assay: PKR mutant assay (K410E), AC50, LDH/NADH-coupled, absorbance at 340 nm; format: biochemical; conditions: Table 2; enzyme assay
Chain of PKR K410E (P30613 whole entry K410E): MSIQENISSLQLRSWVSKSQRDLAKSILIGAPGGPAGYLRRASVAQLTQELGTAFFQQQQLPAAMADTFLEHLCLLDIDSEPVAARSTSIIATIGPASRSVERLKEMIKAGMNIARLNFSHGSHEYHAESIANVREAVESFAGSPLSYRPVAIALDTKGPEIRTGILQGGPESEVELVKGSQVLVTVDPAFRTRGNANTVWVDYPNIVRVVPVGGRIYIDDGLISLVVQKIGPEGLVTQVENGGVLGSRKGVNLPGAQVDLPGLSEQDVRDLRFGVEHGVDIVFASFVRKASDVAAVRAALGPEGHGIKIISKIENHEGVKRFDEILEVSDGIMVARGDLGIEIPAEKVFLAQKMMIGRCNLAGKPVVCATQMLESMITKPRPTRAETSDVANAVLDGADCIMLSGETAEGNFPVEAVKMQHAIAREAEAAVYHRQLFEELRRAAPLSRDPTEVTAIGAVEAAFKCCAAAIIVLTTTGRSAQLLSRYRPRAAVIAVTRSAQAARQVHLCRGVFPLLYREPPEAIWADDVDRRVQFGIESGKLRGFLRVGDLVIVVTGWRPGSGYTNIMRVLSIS
Procedure: as §1, §2, §3, §4, §5, §6, §7, §8, §9, §10

wild type PKR [2] = target: T1, wild type PKR; assay: Cell based ATP assay in purified red blood cells (Cell-Titer-Glo); design: endogenous in cells; host or cells: purified red blood cells from healthy volunteers; conditions: Table 2; RBCs, overnight at 37° C., ATP levels
Procedure: Example 16. Red Blood Cell (RBC) Purification
Fresh blood drawn from healthy volunteers into K2EDTA tubes was collected. Whole blood was pelleted by spinning at 500 g for 10 minutes. Cut transfusion bag port off of Purecell leukocyte reduction neofilter (Fisher NC0267633) one (1) inch above filter. Attach a 10 ml syringe barrel to the remaining cut tubing attached to neofilter. The plasma layer was removed from the pellet of the whole blood and the pellet was resuspended in 2× volume of phosphate buffered saline (PBS). Transfer 9 ml re-suspended blood cell pellet to prepared 10 ml syringe that is attached to the neofilter. Allow whole blood to gravity flow through filter until all fluid runs through upper tubing into filter disc. Add plunger to the syringe, remove syringe from clamp and invert the filter, then plunge air through the syringe filter system. Using a new 5 ml syringe, remove filtered RBCs from the bag by the syringe port and transfer purified RBCs to a 5 ml snap cap tube that has been incubated on ice. Spin 5 ml snap cap tube at 500 g for 10 minutes at 15 C, aspirate supernatant and resuspend in AGAM (1×PBS, 1% glucose, 170 mg/L adenine, 5.25 g/L mannitol) at a density of 4×10^9 cells/mL.
Example 17. Cell Based ATP Assay
For cell based ATP assays, the compound as described herein was prepared in 100% DMSO as a 10 mM stock. Serial dilutions (1:4) were performed in 96-well V-bottom storage plate and then added 1:100 to 96-well V-bottom plates containing AGAM. RBCs were diluted in AGAM media to a density of 1×10^7 cells/mL before added 90 μL/well to black clear bottom assay plates (final compound concentration at 0.1% DMSO concentration). Assay plates were sealed using aluminum foil seals and incubated overnight at 37° C. in a humidified chamber. ATP levels were read out using Cell-Titer-Glo (Promega).

PKR R510Q = PKR R510Q (Homo sapiens, UniProt P30613, R510Q); assay: PKR mutant assay (R510Q), AC50, LDH/NADH-coupled, absorbance at 340 nm; format: biochemical; conditions: Table 2, enzyme assay; for AC50: read-out: PK R510Q AC50
Chain of PKR R510Q (P30613 whole entry R510Q): as the sequence (P30613 whole entry K410E) above, with E410K, R510Q counted along it
Procedure: as §1, §2, §3, §4, §5, §6, §7, §8, §9, §10

T1 sequence (P30613 whole entry): as the sequence (P30613 whole entry K410E) above, with E410K counted along it

Row | AC50 (wild type PKR [1]) | AC50 (PKR K410E) | AC50 (wild type PKR [2]) | AC50 (PKR R510Q) | PKR K410E AC50 (PKR K410E) | Cell based ATP assay AC50 (wild type PKR [2]) | PK R510Q AC50 (PKR R510Q) | Structure (SMILES)
1 | < 300 nM | < 300 nM | ≤ 1000 nM | < 300 nM | – | – | – | COc1cccc(Cn2ncc3c4sc(C)nc4n(C)c3c2=O)c1 [Compound 1]
2 | < 300 nM | < 300 nM | ≤ 1000 nM | – | – | – | – | COc1ccc(Cn2ncc3c4sc(C)nc4n(C)c3c2=O)cc1 [Compound 2]
3 | < 300 nM | < 300 nM | ≤ 1000 nM | < 300 nM | – | – | – | Cc1nc2c(s1)c1cnn(Cc3ccccc3F)c(=O)c1n2C [Compound 3]
4 | > 800 nM | – | – | > 800 nM | No Fit | No Fit | – | COc1cccc(Cn2ncc3c4sc(C(=O)c5ccccc5)nc4n(C)c3c2=O)c1 [Compound 4]
5 | < 300 nM | < 300 nM | ≤ 1000 nM | < 300 nM | – | – | – | COc1cccc(Cn2ncc3c4sc(Cc5ccccc5)nc4n(C)c3c2=O)c1 [Compound 5]
6 | > 800 nM | > 800 nM | > 1000 nM | > 800 nM | – | – | – | Cc1nc2c(s1)c1cnn(Cc3cccc(F)c3)c(=O)c1n2C [Compound 6]
7 | < 300 nM | < 300 nM | ≤ 1000 nM | < 300 nM | – | – | – | Cc1nc2c(s1)c1cnn(Cc3cccc(O)c3)c(=O)c1n2C [Compound 7]
8 | > 800 nM | 301 to 800 nM | > 1000 nM | 301 to 800 nM | – | – | – | COc1ccccc1Cn1ncc2c3sc(C)nc3n(C)c2c1=O [Compound 8]
9 | < 300 nM | < 300 nM | ≤ 1000 nM | < 300 nM | – | – | – | Cc1nc2c(s1)c1cnn(Cc3ccc(F)cc3)c(=O)c1n2C [Compound 9]
10 | > 800 nM | > 800 nM | – | > 800 nM | – | No Fit | – | CCOC(=O)c1cccc(Cn2ncc3c4sc(C)nc4n(C)c3c2=O)c1 [Compound 10]
11 | > 800 nM | > 800 nM | – | > 800 nM | – | No Fit | – | Cc1nc2c(s1)c1cnn(Cc3cccc(C(=O)O)c3)c(=O)c1n2C [Compound 11]
12 | < 300 nM | < 300 nM | – | < 300 nM | – | – | – | COc1cccc(Cn2ncc3c4sc(C(F)c5ccccc5)nc4n(C)c3c2=O)c1 (stereo not shown) [Compound 12]
13 | < 300 nM | < 300 nM | ≤ 1000 nM | < 300 nM | – | – | – | COc1cccc(Cn2ncc3c4sc(C(O)c5ccccc5)nc4n(C)c3c2=O)c1 (stereo not shown) [Compound 13]
14 | < 300 nM | < 300 nM | ≤ 1000 nM | < 300 nM | – | – | – | Cc1nc2c(s1)c1cnn(Cc3cccc(N)c3)c(=O)c1n2C [Compound 14]
15 | > 800 nM | > 800 nM | > 1000 nM | < 300 nM | – | – | – | Cc1nc2c(s1)c1cnn(Cc3cccc(NC(N)=O)c3)c(=O)c1n2C [Compound 15]
16 | < 300 nM | < 300 nM | – | < 300 nM | – | – | – | Cc1nc2c(s1)c1cnn(Cc3ccc(O)cc3)c(=O)c1n2C [Compound 16]
17 | < 300 nM | < 300 nM | ≤ 1000 nM | < 300 nM | – | – | – | Cc1cccc(Cn2ncc3c4sc(C)nc4n(C)c3c2=O)n1 [Compound 17]
18 | 301 to 800 nM | 301 to 800 nM | ≤ 1000 nM | < 300 nM | – | – | – | Cc1nc2c(s1)c1cnn(Cc3ccccc3O)c(=O)c1n2C [Compound 18]
19 | 301 to 800 nM | 301 to 800 nM | > 1000 nM | < 300 nM | – | – | – | COc1cccc(Cn2ncc3c4scnc4n(C)c3c2=O)c1 [Compound 19]
20 | > 800 nM | > 800 nM | > 1000 nM | > 800 nM | – | – | – | Cc1nc2c(s1)c1cnn(Cc3ccc4nn[nH]c4c3)c(=O)c1n2C [Compound 20]

Row | AC50 (wild type PKR [1]) | AC50 (PKR K410E) | AC50 (wild type PKR [2]) | AC50 (PKR R510Q) | PKR K410E AC50 (PKR K410E) | Cell based ATP assay AC50 (wild type PKR [2]) | PK R510Q AC50 (PKR R510Q) | Structure (SMILES)
21 | > 800 nM | > 800 nM | – | – | – | No Fit | No Fit | Cc1nc2c(s1)c1cnn(CO)c(=O)c1n2C [Compound 21]
22 | < 300 nM | < 300 nM | > 1000 nM | < 300 nM | – | – | – | COc1cccc(Cn2ncc3c4sc(OC)nc4n(C)c3c2=O)c1 [Compound 22]
23 | < 300 nM | < 300 nM | > 1000 nM | < 300 nM | – | – | – | COc1cccc(Cn2ncc3c4sc(SC)nc4n(C)c3c2=O)c1 [Compound 23]
24 | < 300 nM | < 300 nM | > 1000 nM | < 300 nM | – | – | – | COc1cccc(Cn2ncc3c4sc([S+](C)[O-])nc4n(C)c3c2=O)c1 (stereo not shown) [Compound 24]
25 | < 300 nM | < 300 nM | > 1000 nM | < 300 nM | – | – | – | COc1cccc(Cn2ncc3c4sc(S(C)(=O)=O)nc4n(C)c3c2=O)c1 [Compound 25]
26 | < 300 nM | > 800 nM | ≤ 1000 nM | < 300 nM | – | – | – | Cc1nc2c(s1)c1cnn(Cc3cccc4[nH]ncc34)c(=O)c1n2C [Compound 26]
27 | < 300 nM | 301 to 800 nM | ≤ 1000 nM | 301 to 800 nM | – | – | – | COc1cccc(Cn2ncc3c4sc(C)nc4n(C)c3c2=O)n1 [Compound 27]
28 | > 800 nM | > 800 nM | > 1000 nM | > 800 nM | – | – | – | Cc1nc2c(s1)c1cnn(Cc3cccc(F)n3)c(=O)c1n2C [Compound 28]
29 | < 300 nM | < 300 nM | > 1000 nM | < 300 nM | – | – | – | Cc1nc2c(s1)c1cnn(Cc3ccc4[nH]ncc4c3)c(=O)c1n2C [Compound 29]
30 | < 300 nM | 301 to 800 nM | > 1000 nM | < 300 nM | – | – | – | COc1cccc(Cn2ncc3c4sc(Cl)nc4n(C)c3c2=O)c1 [Compound 30]
31 | < 300 nM | 301 to 800 nM | ≤ 1000 nM | < 300 nM | – | – | – | COc1cccc(Cn2ncc3c4sc(Cc5ccc(Cl)cc5)nc4n(C)c3c2=O)c1 [Compound 31]
32 | < 300 nM | < 300 nM | ≤ 1000 nM | < 300 nM | – | – | – | COc1cccc(Cn2ncc3c4sc(Cc5ccc(C)cc5)nc4n(C)c3c2=O)c1 [Compound 32]
33 | > 800 nM | > 800 nM | > 1000 nM | 301 to 800 nM | – | – | – | Cc1nc2c(s1)c1cnn(Cc3ccc4cn[nH]c4c3)c(=O)c1n2C [Compound 33]
34 | < 300 nM | < 300 nM | ≤ 1000 nM | < 300 nM | – | – | – | COc1cccc(Cn2ncc3c4sc(Sc5ccccc5)nc4n(C)c3c2=O)c1 [Compound 34]
35 | 301 to 800 nM | 301 to 800 nM | > 1000 nM | 301 to 800 nM | – | – | – | COc1cccc(Cn2ncc3c4sc([S+]([O-])c5ccccc5)nc4n(C)c3c2=O)c1 (stereo not shown) [Compound 35]
36 | > 800 nM | 301 to 800 nM | > 1000 nM | 301 to 800 nM | – | – | – | COc1cccc(Cn2ncc3c4sc(S(=O)(=O)c5ccccc5)nc4n(C)c3c2=O)c1 [Compound 36]
37 | 301 to 800 nM | > 800 nM | > 1000 nM | < 300 nM | – | – | – | C=Cc1nc2c(s1)c1cnn(Cc3cccc(OC)c3)c(=O)c1n2C [Compound 37]
38 | < 300 nM | < 300 nM | > 1000 nM | < 300 nM | – | – | – | COc1cccc(Cn2ncc3c4sc(C=O)nc4n(C)c3c2=O)c1 [Compound 38]
39 | < 300 nM | < 300 nM | > 1000 nM | < 300 nM | – | – | – | CCc1nc2c(s1)c1cnn(Cc3cccc(OC)c3)c(=O)c1n2C [Compound 39]
40 | 301 to 800 nM | 301 to 800 nM | > 1000 nM | < 300 nM | – | – | – | COc1cccc(Cn2ncc3c4sc(I)nc4n(C)c3c2=O)c1 [Compound 40]
